# Experimental data taken from patent US11654132B2, “Methods for treating COVID-19” (priority 2020, dated 2023).
# Like-named read-outs stand apart in the source and are kept apart here.
# How the values were obtained:
# SARS-CoVid-2 infection = conditions: combined with azithromycin; cited from earlier work
# [1] = tested on: Lipopolysaccharide stimulated IL-1B production; conditions: ex-vivo; active metabolite; cited from earlier work
# [2] = cited from earlier work; for in vivo activity: oral and/or intravenous administration, prodrug vs active form
# CYP = conditions: cited from earlier work
# [3] = NASH patients; cited from earlier work
# chronic HCV = conditions: cited from earlier work
# [4] = in vivo; cited from earlier work
# [5] = in vivo; cited from earlier work; remark: listed apart in the source
# [6] = in vivo
# IL-1B = conditions: cited from earlier work
# IL-18 = conditions: cited from earlier work; for inhibition of IL-18: during the duration of the study
# caspase-1 = biological target: T1, caspase-1 (Homo sapiens, UniProt P29466); conditions: healthy and disease states; cited from earlier work
# T1 sequence (P29466 120-297 limits assumed): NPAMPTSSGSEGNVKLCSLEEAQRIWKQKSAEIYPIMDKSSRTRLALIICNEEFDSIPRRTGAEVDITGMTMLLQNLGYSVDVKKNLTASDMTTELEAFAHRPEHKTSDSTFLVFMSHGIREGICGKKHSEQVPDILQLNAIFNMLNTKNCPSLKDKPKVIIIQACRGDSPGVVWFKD
# T1 sequence (P29466 317-404 limits assumed): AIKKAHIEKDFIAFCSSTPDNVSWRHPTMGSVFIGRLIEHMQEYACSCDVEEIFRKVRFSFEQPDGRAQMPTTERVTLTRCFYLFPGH
# [7] = tested on: CD4 T-cell pyroptotic death in HIV-infected lymphoid tissues; conditions: dose-dependent; cited from earlier work
# [8] = dogs at 2000 mg/kg/day; cited from earlier work
# [9] = in vivo; cited from earlier work; remark: listed apart in the source
# CYP3A4 = CYP3A4 (Homo sapiens, UniProt P08684); conditions: recombinant enzyme system; cited from earlier work
# SARS-CoV = conditions: in vitro; cited from earlier work
# COVID-19 = conditions: mild to moderate COVID-19 at high risk of progressing to severe disease; cited from earlier work
# SARS-CoV-2 = conditions: human, in vivo; cited from earlier work
# SARS = conditions: 400 mg and 100 mg added to ribavirin vs historical control; cited from earlier work
# Chain of CYP3A4 (P08684 whole entry): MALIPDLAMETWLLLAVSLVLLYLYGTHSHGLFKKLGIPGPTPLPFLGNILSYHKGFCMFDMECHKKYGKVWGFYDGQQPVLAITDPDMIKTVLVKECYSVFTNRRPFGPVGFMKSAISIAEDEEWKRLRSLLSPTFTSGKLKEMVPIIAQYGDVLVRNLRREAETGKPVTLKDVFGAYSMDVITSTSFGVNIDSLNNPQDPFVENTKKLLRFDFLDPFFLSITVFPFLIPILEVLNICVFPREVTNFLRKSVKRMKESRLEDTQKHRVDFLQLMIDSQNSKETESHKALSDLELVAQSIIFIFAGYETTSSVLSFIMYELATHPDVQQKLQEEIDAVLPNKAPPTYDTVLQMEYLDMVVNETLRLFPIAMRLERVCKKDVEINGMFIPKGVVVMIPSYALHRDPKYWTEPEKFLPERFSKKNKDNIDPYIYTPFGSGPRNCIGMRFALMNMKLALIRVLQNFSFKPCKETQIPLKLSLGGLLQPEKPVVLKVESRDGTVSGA
compound,measurement,setting,value
CCN(CCO)CCCC(C)Nc1ccnc2cc(Cl)ccc12 (centres unmarked) [Hydroxychloroquine],viral loads vs control patients,SARS-CoVid-2 infection,Viral loads appeared to diminish faster
CC(C)(C)C(NC(=O)c1ccc(N)c(Cl)c1)C(=O)N1CCCC1C(=O)NC(C=O)CC(=O)O (centres unmarked) [II],concentration at which Lipopolysaccharide stimulated IL-1B production is 50% suppressed,[1],0.8 µg/mL
same,bioavailability,[2]; active form,poor bioavailability
same,in vivo activity,[2],less than optimal in vivo activity
same,CYP-mediated metabolism as route of clearance,CYP; in vitro studies,not a major route of clearance
CC(C)[C@@]1(C(=O)N[C@H]2CC(=O)O[C@]2(O)CF)CC(c2nccc3ccccc23)=NO1 [Nivocasan],ALT levels,[3],Reductions in ALT levels in NASH
same,reason for termination of Phase IIb,chronic HCV,significant laboratory abnormalities
CCO[C@@H]1OC(=O)C[C@@H]1NC(=O)[C@@H]1CCCN2C(=O)CC[C@H](NC(=O)c3nccc4ccccc34)C(=O)N12 [Pralnacasan],clinical trial outcome in rheumatoid arthritis and osteoarthritis,[4],"amelioration of RA, but not"
same,reason for termination in Phase IIb in RA,[5],liver toxicity in animals (102)
CCO[C@@H]1OC(=O)C[C@@H]1NC(=O)[C@@H]1CCCN1C(=O)[C@@H](NC(=O)c1ccc(N)c(Cl)c1)C(C)(C)C [belnacasan],dog dose estimated as multiple of the maximum dose in this study,[6],10-25 times
same,suppression of IL-1B,IL-1B; single oral dose of 400 mg,50%
same,suppression of IL-1B,IL-1B; single oral dose of 800 mg,80%
same,suppression of IL-1B,IL-1B; single oral dose of 1600 mg,80%
same,inhibition of IL-18,IL-18; 900 mg TID,60%
same,inhibition of IL-18,IL-18; 1200 mg TID,60%
same,inhibition of IL-18,IL-18; 1800 mg TID,60%
same,inhibition of IL-18 over 14 days as compared to placebo,IL-18; healthy controls,gradual but marked inhibition
same,in vivo activity,[2],better in vivo activity
same,effect of blocking caspase-1,caspase-1,"prevent production of IL-1β, IL-18, and pyroptosis"
same,CD4 T-cell pyroptotic death,[7],Prevents CD4 T-cell
same,only preclinical finding on toxicity studies,[8],reduction of the heart rate
same,adverse effects reported in humans,[9],"mild and mainly include headache, nausea, lethargy and dizziness"
same,seizure,[9],reported in more than one patient
same,severity of adverse events (CTCAE),[9],mild and of no consequence (grade 1 and 2 by CTCAE criteria)
same,CYP-mediated metabolism as route of clearance,CYP,not a major route of clearance
same,metabolism by CYP3A4,CYP3A4,metabolized by CYP3A4
Cc1cccc(C)c1OCC(=O)N[C@@H](Cc1ccccc1)[C@@H](O)C[C@H](Cc1ccccc1)NC(=O)[C@H](C(C)C)N1CCCNC1=O [lopinavir],activity against SARS-CoV,SARS-CoV,in vitro inhibitory activity
bamlanivimab: monoclonal antibody for COVID-19,efficacy,COVID-19,efficacious
casirivimab: monoclonal antibody for COVID-19,efficacy,COVID-19,efficacious
imdevimab: monoclonal antibody for COVID-19,efficacy,COVID-19,efficacious
lopinavir—ritonavir,"clinical symptoms, mortality, viral loads vs standard of care alone",SARS-CoV-2,"no improvement in clinical symptoms, mortality, or viral loads"
same,risk of adverse clinical outcomes (ARDS or death) and viral load,SARS,reduced the risk of adverse clinical outcomes
